Experimental data taken from patent publication US8883782B2, “Spiro-tetracyclic ring compounds as beta-secretase modulators and methods of use” (Amgen Inc., priority 2010, dated 2014).
Read-outs that look alike come from different tables or passages of the source.

Legend:
[1] = system: Abeta 40 in cerebrospinal fluid (CSF) and brain; experiment: In vivo inhibition of beta-secretase (Abeta 40 reduction in CSF and brain); conditions: rat, after 4 hrs; for inhibition in vivo at 10 mg/kg: Abeta 40, 10 mg/kg (10 mpk); for inhibition in vivo at 3 mg/kg: Abeta 40, 3 mpk
Description: In Vivo Inhibition of Beta-Secretase
Several animal models, including mouse, rat, dog, and monkey, may be used to screen for inhibition of beta-secretase activity in vivo following administration of a test compound sample. Animals used in this invention can be wild type, transgenic, or gene knockout animals. […] A separate group of animals receive 2% hydroxypropyl methylcellulose, 1% Tween80 alone, containing no test compound, and serve as a vehicle-control group. At the end of the test period, animals are sacrificed and brain tissues, plasma or cerebrospinal fluid are collected. […] Homogenates are centrifuged at 355,000 g, 4° C. for 30 minutes. CSF or brain supernatants are then analyzed for the presence of A-beta peptide by specific sandwich ELISA assays based on ECL (Electrochemiluminescence) technology. For example, rat Abeta40 is measured using biotinylated-4G8 (Signet) as a capture antibody and Fab40 (an in-house antibody specific to the C-terminal of Abeta40) as a detection antibody.
Actual vehicles used: Oral: 2% HPMC, 1% Tween80, pH 2.2

[2] = biological target: Beta Secretase enzyme (BACE) (Homo sapiens, UniProt P56817); experiment: In vitro enzymatic BACE FRET (fluorescence resonance energy transfer) assay; type: biochemical; conditions: average IC50, enzyme assay; read-out: BACE 1 FRET assay
Sequence of Beta Secretase enzyme (BACE) (P56817 46-501, species assumed): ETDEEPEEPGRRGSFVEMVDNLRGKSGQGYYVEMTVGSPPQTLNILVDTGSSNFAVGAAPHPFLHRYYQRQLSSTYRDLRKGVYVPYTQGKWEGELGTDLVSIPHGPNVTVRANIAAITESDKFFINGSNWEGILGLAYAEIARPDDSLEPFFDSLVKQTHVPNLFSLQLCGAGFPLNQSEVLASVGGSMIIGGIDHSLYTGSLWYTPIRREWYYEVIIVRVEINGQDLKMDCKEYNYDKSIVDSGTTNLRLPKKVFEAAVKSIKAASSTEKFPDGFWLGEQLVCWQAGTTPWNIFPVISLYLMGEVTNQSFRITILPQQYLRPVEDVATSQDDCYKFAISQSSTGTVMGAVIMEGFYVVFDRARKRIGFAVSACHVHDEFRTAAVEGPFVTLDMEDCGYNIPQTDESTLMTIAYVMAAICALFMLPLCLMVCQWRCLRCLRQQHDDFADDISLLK
Method in brief: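 Fluorescence read after Tris quench (pH raised to neutrality) of a one-hour BACE reaction. Buffer: acetate 0.05 M, pH 4.2, with 100 uM genapol and 10% DMSO final; started by adding 50 nM FRET peptide substrate spanning the cleavage site.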

[3] = system: Aβ40 in conditioned medium of cells stably expressing Amyloid Precursor Protein (APP); experiment: In vitro BACE cell-based assay (Aβ40 in conditioned medium, sandwich ELISA); conditions: Homo sapiens, read-out: HEK cell assay
Method in brief: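 Conditioned medium from stably APP-expressing cells treated with compound dose series is assayed for Aβ40 by sandwich ELISA with time-resolved fluorescence detection. IC50 is calculated from percent inhibition of Aβ40 against compound concentration.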

[4] = CSF, read-out: CSF A-beta reduction % at 10 mg/kg
[5] = brain, read-out: Brain A-beta reduction % at 10 mg/kg
[6] = HEK293, average IC50, HEK cells
[7] = CSF, read-out: CSF A-beta reduction % at 3 mpk
[8] = brain, read-out: Brain A-beta reduction % at 3 mpk

Work on `NC1=N[C@@]2(CO1)c1cc(-c3cnccn3)ccc1Oc1c(F)cc(C3=CCOCC3)cc12` [Example 452, (S)-2′-(3,6-dihydro-2H-pyran-4-yl)-4′-fluoro-7′-(pyrazin-2-yl)-5H-spiro[oxazole-4,9′-xanthen]-2-amine] yielded an inhibition in vivo at 10 mg/kg [1, 4] of 56%, an inhibition in vivo at 10 mg/kg [1, 5] of 35% and an IC50 [2] of 2 nM. The IC50 [3, 6] was 11.5 nM.
`CC(C)(C#N)COc1cc(F)c2c(c1)[C@]1(COC(N)=N1)c1cc(-c3cccnc3)c(F)cc1O2` [Example 860, (S)-3-(2-amino-3′,5′-difluoro-2′-(pyridin-3-yl)-5H-spiro[oxazole-4,9′-xanthene]-7′-yloxy)-2,2-dimethylpropanenitrile] was tested, and the inhibition in vivo at 10 mg/kg [1, 4] was 0%, the inhibition in vivo at 10 mg/kg [1, 5] was 2% and the IC50 [2] was 0.7 nM. It also gave an IC50 [3, 6] of 10 nM.
`Cc1cnc(F)c(-c2ccc3c(c2)[C@@]2(COC(N)=N2)c2cc(N4CCOCC4)cc(F)c2O3)c1` [Example 132, (S)-4′-fluoro-7′-(2-fluoro-5-methylpyridin-3-yl)-2′-morpholino-5H-spiro[oxazole-4,9′-xanthen]-2-amine] showed an inhibition in vivo at 10 mg/kg [1, 4] of 54%, an inhibition in vivo at 10 mg/kg [1, 5] of 45% and an IC50 [2] of 1.5 nM. It also gave an IC50 ([3]; HEK293, average IC50) of 6 nM.
`Cc1cnc(-c2cc(F)c3c(c2)[C@]2(COC(N)=N2)c2cc(-c4cccnc4F)ccc2O3)nc1` [Example 226, (S)-4′-fluoro-7′-(2-fluoropyridin-3-yl)-2′-(5-methylpyrimidin-2-yl)-5H-spiro[oxazole-4,9′-xanthen]-2-amine] was tested, and the inhibition in vivo at 10 mg/kg [1, 4] was 31%, the inhibition in vivo at 10 mg/kg [1, 5] was 19% and the IC50 [2] was 3.9 nM. It also gave an IC50 ([3]; HEK293, average IC50) of 27.2 nM.
`NC1=N[C@@]2(CS1)c1cc(-c3cccnc3F)ccc1Oc1c2cc(-c2ccnc(F)c2)nc1F` (single isomer, unassigned) [Example 996] gave an inhibition in vivo at 10 mg/kg [1, 4] of 55%, an inhibition in vivo at 10 mg/kg [1, 5] of 43% and an IC50 [2] of 0.2 nM. It also gave an IC50 ([3]; HEK293, average IC50) of 13 nM.
With `NC1=N[C@@]2(CO1)c1cc(-c3cccnc3F)ccc1Oc1c(F)cc(N3CC4CCC(C3)O4)cc12` [Example 225, (4S)-2′-(8-oxa-3-azabicyclo[3.2.1]octan-3-yl)-4′-fluoro-7′-(2-fluoropyridin-3-yl)-5H-spiro[oxazole-4,9′-xanthen]-2-amine] the inhibition in vivo at 10 mg/kg [1, 4] was 64%, the inhibition in vivo at 10 mg/kg [1, 5] was 47% and the IC50 [2] was 0.3 nM. It also gave an IC50 ([3]; HEK293, average IC50) of 1.6 nM.
`CC1(C)C=C(c2ccc3c(c2)[C@]2(COC(N)=N2)c2cc(-c4cncnc4)c(F)cc2O3)CCO1` [Example 508, (R)-7′-(6,6-dimethyl-3,6-dihydro-2H-pyran-4-yl)-3′-fluoro-2′-(pyrimidin-5-yl)-5H-spiro[oxazole-4,9′-xanthen]-2-amine] gave an inhibition in vivo at 10 mg/kg [1, 4] of 49%, an inhibition in vivo at 10 mg/kg [1, 5] of 25% and an IC50 [2] of 3.7 nM. For the same compound, the IC50 [3, 6] was 14.4 nM.
Compound `NC1=N[C@@]2(CS1)c1cc(-c3cccnc3F)ccc1Oc1c2cc(C2=CCOCC2)nc1F` [Example 1001, (S)-3-(3,6-dihydro-2H-pyran-4-yl)-1-fluoro-7-(2-fluoropyridin-3-yl)-5′H-spiro[chromeno[2,3-c]pyridine-5,4′-thiazol]-2′-amine] has an inhibition in vivo at 3 mg/kg [1, 7] of 73%, an inhibition in vivo at 3 mg/kg [1, 8] of 62% and an IC50 [2] of 0.3 nM. For the same compound, the IC50 ([3]; HEK293, average IC50) was 4 nM.
In the case of `NC1=N[C@@]2(CS1)c1cc(-c3cccnc3F)ccc1Oc1c(F)cc(N3CCC(F)(F)C3)cc12` [Example 1077, (S)-2′-(3,3-difluoropyrrolidin-1-yl)-4′-fluoro-7′-(2-fluoropyridin-3-yl)-5H-spiro[thiazole-4,9′-xanthen]-2-amine], the inhibition in vivo at 10 mg/kg [1, 4] is reported as 69%, the inhibition in vivo at 10 mg/kg [1, 5] is reported as 53% and the IC50 [2] is reported as 0.3 nM. It also gave an IC50 ([3]; HEK293, average IC50) of 9 nM.
Work on `NC1=N[C@@]2(CO1)c1cc(-c3cccnc3)ccc1Oc1c2cc(C2=CCCOC2)nc1F` [Example 745, (5S)-3-(5,6-dihydro-2-H-pyran-3-yl)-1-fluoro-7-(3-pyridinyl)spiro[chromeno[2,3-c]pyridine-5-4′-[1,3]oxazol]-2′-amine] yielded an inhibition in vivo at 10 mg/kg [1, 4] of 78%, an inhibition in vivo at 10 mg/kg [1, 5] of 69% and an IC50 [2] of 0.4 nM. The IC50 ([3]; HEK293, average IC50) was 4 nM.
`CC#Cc1cncc(-c2ccc3c(c2)[C@@]2(COC(N)=N2)c2cc(C4=CCOCC4)cnc2O3)c1` [Example 942, (S)-3-(3,6-dihydro-2H-pyran-4-yl)-7-(5-(prop-1-ynyl)pyridin-3-yl)-5′H-spiro[chromeno[2,3-b]pyridine-5,4′-oxazol]-2′-amine] showed an inhibition in vivo at 3 mg/kg [1, 7] of 57%, an inhibition in vivo at 3 mg/kg [1, 8] of 42% and an IC50 [2] of 0.4 nM. For the same compound, the IC50 [3, 6] was 1 nM.
Compound `Cn1cc(-c2cc(F)c3c(c2)[C@]2(COC(N)=N2)c2cc(-c4ccc(F)nc4)ccc2O3)cn1` [Example 262, (S)-4′-fluoro-7′-(6-fluoropyridin-3-yl)-2′-(1-methyl-1H-pyrazol-4-yl)-5H-spiro[oxazole-4,9′-xanthen]-2-amine] has an inhibition in vivo at 10 mg/kg [1, 4] of 36%, an inhibition in vivo at 10 mg/kg [1, 5] of 11% and an IC50 [2] of 3.3 nM. For the same compound, the IC50 ([3]; HEK293, average IC50) was 12.6 nM.
Work on `CC1(C#Cc2cnc3c(c2)[C@]2(COC(N)=N2)c2cc(-c4cccc(Cl)c4F)ccc2O3)COC1` [Example 463, (S)-7-(3-chloro-2-fluorophenyl)-3-((3-methyloxetan-3-yl)ethynyl)-5′H-spiro[chromeno[2,3-b]pyridine-5,4′-oxazol]-2′-amine] yielded an inhibition in vivo at 10 mg/kg [1, 4] of 30%, an inhibition in vivo at 10 mg/kg [1, 5] of 9% and an IC50 [2] of 0.8 nM. It also gave an IC50 [3, 6] of 14.3 nM.
`NC1=N[C@@]2(CO1)c1cc(-c3cccnc3F)ccc1Oc1c(F)cc(-c3ncccn3)cc12` [Example 128, (S)-4′-fluoro-7′-(2-fluoropyridin-3-yl)-2′-(pyrimidin-2-yl)-5H-spiro[oxazole-4,9′-xanthen]-2-amine] gave an inhibition in vivo at 10 mg/kg [1, 4] of 75%, an inhibition in vivo at 10 mg/kg [1, 5] of 57% and an IC50 [2] of 1.1 nM. It also gave an IC50 ([3]; HEK293, average IC50) of 8.2 nM.
In the case of `NC1=N[C@@]2(CS1)c1cc(-c3cccnc3F)ccc1Oc1c(F)cc(-c3cccnc3)cc12` [Example 1083, (S)-4′-fluoro-7′-(2-fluoropyridin-3-yl)-2′-(pyridin-3-yl)-5H-spiro[thiazole-4,9′-xanthen]-2-amine], the inhibition in vivo at 10 mg/kg [1, 4] is reported as 66%, the inhibition in vivo at 10 mg/kg [1, 5] is reported as 53% and the IC50 [2] is reported as 1.2 nM. It also gave an IC50 ([3]; HEK293, average IC50) of 18 nM.
Compound `CC1(C)C=C(c2cc3c(c(F)n2)Oc2ccc(-c4cccnc4F)cc2[C@@]32CSC(N)=N2)CCO1` [Example 1033, (S)-3-(6,6-dimethyl-3,6-dihydro-2H-pyran-4-yl)-1-fluoro-7-(2-fluoropyridin-3-yl)-5′H-spiro[chromeno[2,3-c]pyridine-5,4′-thiazol]-2′-amine] has an inhibition in vivo at 3 mg/kg [1, 7] of 60%, an inhibition in vivo at 3 mg/kg [1, 8] of 52% and an IC50 [2] of 108 nM. For the same compound, the IC50 ([3]; HEK293, average IC50) was 563 nM.
`NC1=N[C@@]2(CS1)c1cc(-c3cccnc3F)ccc1Oc1ncc(C3=CCCOC3)cc12` [Example 672, (5S)-3-(5,6-dihydro-2H-pyran-3-yl)-7-(2-fluoro-3-pyridinyl)spiro[chromeno[2,3-b]pyridine-5,4′-[1,3]thiazol]-2′-amine] was tested, and the inhibition in vivo at 10 mg/kg [1, 4] was 64%, the inhibition in vivo at 10 mg/kg [1, 5] was 47% and the IC50 [2] was 0.7 nM. The IC50 [3, 6] was 10 nM.
`NC1=N[C@@]2(CO1)c1cc(-c3cccnc3)ccc1Oc1c2cc(N2CCC(F)(F)C2)nc1F` [Example 916, (S)-3-(3,3-difluoropyrrolidin-1-yl)-1-fluoro-7-(pyridin-3-yl)-5′-H-spiro[chromeno[2,3-c]pyridine-5,4′-oxazol]-2′-amine] was tested, and the inhibition in vivo at 10 mg/kg [1, 4] was 61%, the inhibition in vivo at 10 mg/kg [1, 5] was 44% and the IC50 [2] was 0.4 nM. For the same compound, the IC50 [3, 6] was 5 nM.
`NC1=N[C@@]2(CO1)c1cc(-c3cncc(F)c3)ccc1Oc1c2cc(N2CCOCC2)nc1F` [Example 893, (5S)-1-fluoro-7-(5-fluoro-3-pyridinyl)-3-(4-morpholinyl)spiro[chromeno[2,3-c]pyridine-5,4′-[1,3]oxazol]-2′-amine] gave an inhibition in vivo at 10 mg/kg [1, 4] of 76%, an inhibition in vivo at 10 mg/kg [1, 5] of 70% and an IC50 [2] of 0.3 nM. The IC50 [3, 6] was 7 nM.
`CC#Cc1cncc(-c2ccc3c(c2)[C@@]2(COC(N)=N2)c2cc(C#CC(C)(C)O)cc(F)c2O3)c1` [Example 951, (S)-4-(2-amino-5′-fluoro-2′-(5-(prop-1-ynyl)pyridin-3-yl)-5H-spiro[oxazole-4,9′-xanthene]-7′-yl)-2-methylbut-3-yn-2-ol] gave an inhibition in vivo at 3 mg/kg [1, 7] of 17%, an inhibition in vivo at 3 mg/kg [1, 8] of 13% and an IC50 [2] of 0.6 nM. It also gave an IC50 [3, 6] of 4 nM.
`N#Cc1cccc(-c2ccc3c(c2)[C@@]2(COC(N)=N2)c2cc(N4CCC(F)(F)C4)ncc2O3)c1` [Example 134, (S)-3-(2′-amino-3-(3,3-difluoropyrolidin-1-yl)-5′H-spiro[chromeno[2,3-c]pyridine-5,4′-oxazole]-7-yl)benzonitrile] showed an inhibition in vivo at 10 mg/kg [1, 4] of 61%, an inhibition in vivo at 10 mg/kg [1, 5] of 45% and an IC50 [2] of 1 nM. For the same compound, the IC50 [3, 6] was 12 nM.
